We go through twelve molecules from patent US10206902B2, “Mono- or di-substituted indoles as dengue viral replication inhibitors” (priority 2014, dated 2019).

Data set [1] deals with DENV-2 16681 strain. Description: DENV-2 antiviral assay (eGFP-labelled virus in Vero cells). It is filed as cell-based, Dengue virus. The note with it: DENV-2 16681 eGFP, MOI 0.5, 3 days. How it is done: The antiviral activity of all the compounds of the invention was tested against DENV-2 16681 strain which was labeled with enhanced green fluorescent protein (eGPF). The culture medium consists of minimal essential medium supplemented with 2% of heat-inactivated fetal calf serum, 0.04% gentamycin (50 mg/mL) and 2 mM of L-glutamine. Vero cells, obtained from ECACC, were suspended in culture medium and 25 μL was added to 384-well plates (2500 cells/well), which already contain the antiviral compounds. Typically, these plates contain a 4-fold serial dilution of 9 dilution steps of the test compound at 200 times the final concentration in 100% DMSO (200 nL). In addition, each compound concentration is tested in quadruplicate (final concentration range: 25 μM-0.00038 μM). Finally, each plate contains wells which are assigned as virus controls (containing cells and virus in the absence of compound), cell controls (containing cells in the absence of virus and compound) and medium controls (containing medium in the absence of cells, virus and compounds). To the wells assigned as medium control, 25 μL of culture medium was added instead of Vero cells. Once the cells were added to the plates, the plates were incubated for 30 minutes at room temperature to allow the cells to distribute evenly within the wells. Next, the plates were incubated in a fully humidified incubator (37° C., 5% CO2) until the next day. Then, DENV-2 strain 16681, labeled with eGFP, was added at a multiplicity of infection (MOI) of 0.5. Therefore, 15 μL of virus suspension was added to all the wells containing test compound and to the wells assigned as virus control. In parallel, 15 μL of culture medium was added to the medium and cell controls. Next, the plates were incubated for 3 days in a fully humidified incubator (37° C., 5% CO2). At the day of the read out, the eGFP fluorescence was measured using an automated fluorescence microscope at 488 nm (blue laser). Using an in-house LIMS system, inhibition dose response curves for each compound were calculated and the half maximal effective concentration (EC50) was determined. Therefore, the percent inhibition (I) for every test concentration is calculated using the following formula: I=100*(ST−SCC)/(SVC−SCC); ST, SCC and SVC are the amount of eGFP signal in the test compound, cell control and virus control wells, respectively. The EC50 represents the concentration of a compound at which the virus replication is inhibited with 50%, as measured by a 50% reduction of the eGFP fluorescent intensity compared to the virus control. The EC50 is calculated using linear interpolation (Table 1).

A short description of data set [2]: in vitro. It is filed as cell-based. The note with it: African green monkey, CC50. How it is done: Potential cytotoxic effects of the compounds were evaluated in uninfected Vero cells. Cells were seeded at 4×10^4 cells/well in a 96-well plate in the presence of two-, three- or five-fold serial dilutions (ranging from 50 μg/mL-0.0038 μg/mL, 50 μg/mL-0.0076 μg/mL, and 50 μg/mL-0.00013 μg/mL, respectively) of compound and incubated for 4 to 7 days. Culture medium was discarded and 100 μL 3-(4,5-dimethylthiazol-2-yl)-5-(3-carboxymethoxyphenyl)-2-(4-sulfophenyl)-2H-tetrazolium/phenazinemethosulfate (MTS/PMS; Promega, Leiden, The Netherlands) in PBS was added to each well. Following a 2-hour incubation period at 37° C., the optical density was determined at 498 nm. Cytotoxic activity was calculated using the following formula: % cell viability=100×(ODCompound/ODCC), where ODcompound and ODCC correspond to the optical density at 498 nm of the uninfected cell cultures treated with compound and that of uninfected, untreated cell cultures, respectively. The 50% cytotoxic concentration (i.e., the concentration that reduces the total cell number with 50%; CC50) was calculated using linear interpolation (Tables 7 and 8).

Data set [3] relates to DENV-1 Djibouti strain D1/H/IMTSSA/98/606. Put plainly: Tetravalent RT-qPCR assay Protocol B, serotype 1. The format is cell-based. The note with it: Dengue virus, DENV1, Vero, 168 h. How it is done: Vero cells (4×10^4) were seeded in 96-well plates. […] Following a 2 hour incubation period, the cell monolayer was washed 3 times with assay medium to remove residual, non-adsorbed virus and cultures were further incubated for either 4 days (DENV-2 NGC-Tongalike) or 7 days (DENV-1 Djibouti strain D1/H/IMTSSA/98/606, DENV-3 strain H87 prototype, DENV-4 strain H241′) in the presence of the inhibitor. Supernatant was harvested and viral RNA load was determined by real-time quantitative RT-PCR. The 50% effective concentration (EC50), which is defined as the compound concentration that is required to inhibit viral RNA replication by 50%, was determined using logarithmic interpolation (Tables 7 and 8). RNA was isolated from 100 μL supernatant with the NucleoSpin 96 Virus kit (Filter Service, Duren, Germany) as described by the manufacturer. The sequences of the TaqMan primers (DENV-For, DENV-Rev; Table 5) and TaqMan probes (DENV-Probe Table 5) were selected from non-structural gene 3 (NS3) or NS5, of the respective flaviviruses using Primer Express software (version 2.0; Applied Biosystems, Lennik, Belgium). The TaqMan probe was fluorescently labelled with 6-carboxyfluorescein (FAM) at the 5′ end as the reporter dye, and with minor groove binder (MGB) at the 3′ end as the quencher (Table 5). One-step, quantitative RT-PCR was performed in a total volume of 25 μL, containing 13.9375 μL H2O, 6.25 μL master mix (Eurogentec, Seraing, Belgium), 0.375 μL forward primer, 0.375 μL reverse primer, 1 μL probe, 0.0625 μL reverse transcriptase (Eurogentec) and 3 μL sample. RT-PCR was performed using the ABI 7500 Fast Real-Time PCR System (Applied Biosystems, Branchburg, N.J., USA) using the following conditions: 30 min at 48° C. and 10 min at 95° C., followed by 40 cycles of 15 s at 95° C. and 1 min at 60° C. The data was analyzed using the ABI PRISM 7500 SDS software (version 1.3.1; Applied Biosystems). For absolute quantification, standard curves were generated using 10-fold dilutions of template preparations of known concentrations.

As for `COc1cc(NC(C(=O)c2c[nH]c3c(C)c(Cl)ccc23)c2ccc(F)cc2OC)cc(OCCO)c1` (single isomer, unassigned) [Compound 3A, 1-(6-chloro-7-methyl-1H-indol-3-yl)-2-(4-fluoro-2-methoxyphenyl)-2-((3-(2-hydroxyethoxy)-5-methoxyphenyl)amino)ethanone], the EC50 in data set [1] came to 0.77 nM; in data set [3], 45 nM. This molecule also yielded a CC50 in data set [2] of 7600 nM.
The like results for `COc1cc(NC(C(=O)c2c[nH]c3cc(F)ccc23)c2ccc(F)cc2OC)cc(OCCO)c1` (single isomer, unassigned) [Compound 1A, 1-(6-fluoro-1H-indol-3-yl)-2-(4-fluoro-2-methoxyphenyl)-2-((3-(2-hydroxyethoxy)-5-methoxyphenyl)amino)ethanone] were, in that order, 3.8 nM, 40 nM and 13000 nM.
The like results for `COc1cc(NC(C(=O)c2c[nH]c3cc(OC)c(F)cc23)c2ccc(F)cc2OC)cc(OCCO)c1` (single isomer, unassigned) [Compound 7A, 2-(4-fluoro-2-methoxyphenyl)-1-(5-fluoro-6-methoxy-1H-indol-3-yl)-2-((3-(2-hydroxyethoxy)-5-methoxyphenyl)amino)ethanone] were, in that order, 4.6 nM, 55 nM and 16000 nM.
On the same counts, the results for `COc1cc(NC(C(=O)c2c[nH]c3cc(OC)c(C)cc23)c2ccc(F)cc2OC)cc(OCCO)c1` (single isomer, unassigned) [Compound 6A, 2-(4-fluoro-2-methoxyphenyl)-2-((3-(2-hydroxyethoxy)-5-methoxyphenyl)amino)-1-(6-methoxy-5-methyl-1H-indol-3-yl)ethanone] are 2.7 nM, 21 nM and 9700 nM.
Take `COc1cc(NC(C(=O)c2c[nH]c3c(F)cc(C)cc23)c2ccc(F)cc2OC)cc(OCCO)c1` (single isomer, unassigned) [Compound 12B, 2-(4-fluoro-2-methoxyphenyl)-1-(7-fluoro-5-methyl-1H-indol-3-yl)-2-((3-(2-hydroxyethoxy)-5-methoxyphenyl)amino)ethanone]: the EC50 amounted to 5.1 nM in data set [1] and 96 nM in data set [3]. Besides, in data set [2], the cytotoxic concentration (CC50) was determined as 9400 nM.
For `COc1cc(NC(C(=O)c2c[nH]c3c(C)cc(F)cc23)c2ccc(F)cc2OC)cc(OCCO)c1` (single isomer, unassigned) [Compound 9B, 2-(4-fluoro-2-methoxyphenyl)-1-(5-fluoro-7-methyl-1H-indol-3-yl)-2-((3-(2-hydroxyethoxy)-5-methoxyphenyl)amino)ethanone], the values for the concentration giving a half-maximal response (EC50) in data set [1] and in data set [3] were 3.4 nM and 42 nM, respectively. In data set [2], this molecule displayed a half-maximal cytotoxic concentration (CC50) of 8800 nM.
The like results for `COc1cc(NC(C(=O)c2c[nH]c3c(F)c(F)ccc23)c2ccc(F)cc2OC)cc(OCCO)c1` (single isomer, unassigned) [Compound 5B, 1-(6,7-difluoro-1H-indol-3-yl)-2-(4-fluoro-2-methoxyphenyl)-2-((3-(2-hydroxyethoxy)-5-methoxyphenyl)amino)ethanone] were, in that order, 2.5 nM, 65 nM and 12000 nM.
For the molecule `COc1cc(NC(C(=O)c2c[nH]c3c(C)c(F)ccc23)c2ccc(F)cc2OC)cc(OCCO)c1` (single isomer, unassigned) [Compound 2B, 2-(4-fluoro-2-methoxyphenyl)-1-(6-fluoro-7-methyl-1H-indol-3-yl)-2-((3-(2-hydroxyethoxy)-5-methoxyphenyl)amino)ethanone], the half-maximal effective concentration (EC50) in data set [1] came out at 2.2 nM; in data set [3], 41 nM. Besides, it took 9200 nM to reach half-maximal cytotoxicity in data set [2] (CC50).
The like results for `COc1cc(NC(C(=O)c2c[nH]c3cc(Cl)ccc23)c2ccc(F)cc2OC)cc(OCCO)c1` (single isomer, unassigned) [Compound 4A, 1-(6-chloro-1H-indol-3-yl)-2-(4-fluoro-2-methoxyphenyl)-2-((3-(2-hydroxyethoxy)-5-methoxyphenyl)amino)ethanone] were, in that order, 1.6 nM, 27 nM and 9700 nM.
On the same counts, the results for `COc1cc(NC(C(=O)c2c[nH]c3c(C)c(OC)ccc23)c2ccc(F)cc2OC)cc(OCCO)c1` (single isomer, unassigned) [Compound 11A, 2-(4-fluoro-2-methoxyphenyl)-2-((3-(2-hydroxyethoxy)-5-methoxyphenyl)amino)-1-(6-methoxy-7-methyl-1H-indol-3-yl)ethanone] are 0.81 nM, 23 nM and 11000 nM.
Consider `COc1cc(NC(C(=O)c2c[nH]c3c(Cl)c(OC)ccc23)c2ccc(F)cc2OC)cc(OCCO)c1` (single isomer, unassigned) [Compound 8A, 1-(7-chloro-6-methoxy-1H-indol-3-yl)-2-(4-fluoro-2-methoxyphenyl)-2-((3-(2-hydroxyethoxy)-5-methoxyphenyl)amino)ethanone], for which the half-maximal effective concentration (EC50) stood at 1 nM in data set [1] and 49 nM in data set [3]. In data set [2], this molecule had a cytotoxic concentration (CC50) of 9600 nM.
The like results for `COc1cc(NC(C(=O)c2c[nH]c3cc(F)c(F)cc23)c2ccc(F)cc2OC)cc(OCCO)c1` (single isomer, unassigned) [Compound 10B, 1-(5,6-difluoro-1H-indol-3-yl)-2-(4-fluoro-2-methoxy-phenyl)-2-((3-(2-hydroxyethoxy)-5-methoxyphenyl)amino)ethanone] were, in that order, 2.7 nM, 52 nM and 7300 nM.
